# Values quoted from earlier work, collected in US20190380992A1 (Biogen MA Inc., priority 2014, published 2019).
# Where a name gives a salt, the structure may show the parent alone.
# What was measured:
# [1] = system: patients initiating DMF; conditions: DEFINE and CONFIRM studies
# [2] = system: multiple sclerosis patients; conditions: second phase 3 study; glatiramer acetate as active reference
# [3] = system: multiple sclerosis patients; conditions: compared with placebo after two years of treatment
structure (smiles),measurement,setting,value
"COC(=O)/C=C/C(=O)OC [DMF, dimethyl fumarate]",safety profile,[1],acceptable safety profile
same,support of the DEFINE findings,[2],findings were supported
same,accumulation of disability progression,[3],significantly reduced
same,clinical relapses,[3],significantly reduced
same,lesion number and volume,[3],significantly reduced
